A short description of data set [1]: Occupational exposure limit (OEL) and ASHRAE toxicity class of mixed refrigerant, calculated from component OELs and mole fractions. To be noted: ANSI/ASHRAE Standard 34-2019; for Occupational exposure limit: center composition of mixed refrigerant. From the text: In the present specification, a “toxicity class A” refrigerant means that the occupational exposure limit (OEL) of the mixed refrigerant is 400 ppm or more in accordance with the US ANSI/ASHRAE Standard 34-2019. A “toxicity class B” refrigerant means that the occupational exposure limit of the mixed refrigerant is less than 400 ppm in accordance with the US ANSI/ASHRAE Standard 34-2019.
In the present disclosure, the occupational exposure limit (OEL) of a mixed refrigerant refers to a value evaluated based on the center composition, unless otherwise specified. However, calculation is performed with the OEL of each refrigerant as follows. • R32: 1000 ppm • R152a: 1000 ppm • HFO-1132(E): 350 ppm
The OEL of the center composition of a mixed refrigerant is calculated in accordance with the following formula.
wherein an represents the OEL of each refrigerant compound, and mfn represents the mole fraction of each refrigerant compound.
The occupational exposure limit (OEL value) of each mixed refrigerant was investigated.

The conditions of data set [2]: component values used for the calculation; cited from earlier work.

As for `F/C=C/F` [0-1, trans-1,2-difluoroethylene], in data set [1], the ASHRAE toxicity class entry was “B (the occupational exposure limit of the mixed refrigerant is less than 400 ppm)” and the Occupational exposure limit is 350 ppm. Further, the “OEL of each refrigerant” value in data set [2] was 350 ppm.

For the compound `CC(F)F` [0-2, 1,1-difluoroethane], in data set [1], the ASHRAE toxicity class result is given as “A (the occupational exposure limit (OEL) of the mixed refrigerant is 400 ppm or more)” and the Occupational exposure limit is listed as 1000 ppm.

As to `FCF` [0-3, difluoromethane], in data set [1], the ASHRAE toxicity class result is listed as “A (the occupational exposure limit (OEL) of the mixed refrigerant is 400 ppm or more)” and the Occupational exposure limit was 1000 ppm. Besides, the “OEL of each refrigerant” value in data set [2] was 1000 ppm.
